Data on 1 compound can be found in PMC9942140 (Journal of medicinal chemistry, 2022).

This assay has as its target T1, hepatocyte nuclear factor 4α (HNF4α) (Homo sapiens, UniProt P41235).
T1 sequence (P41235 147-377): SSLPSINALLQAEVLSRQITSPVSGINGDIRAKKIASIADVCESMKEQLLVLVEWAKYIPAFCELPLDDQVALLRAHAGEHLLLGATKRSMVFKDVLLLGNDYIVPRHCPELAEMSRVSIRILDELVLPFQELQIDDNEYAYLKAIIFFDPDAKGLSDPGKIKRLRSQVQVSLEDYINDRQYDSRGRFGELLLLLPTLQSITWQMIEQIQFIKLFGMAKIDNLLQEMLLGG
Put plainly: intrinsic tyrosine/tryptophan fluorescence quenching titration of purified LBD. It counts as binding.

What is called Kd is the constant that tells how readily two partners part at equilibrium. A low value points to a tighter complex. `COc1cc(C)c(C(C)C)cc1S(=O)(=O)N(CC(O)Cn1nnnc1-c1ccccn1)c1ccccc1C` (racemic) [compound 33, N-(2-Hydroxy-3-(5-(pyridin-2-yl)-1H-tetrazol-1-yl)propyl)-5-isopropyl-2-methoxy-4-methyl-N-(o-tolyl)benzenesulfonamide] showed a Kd of 312 nM.
